According to ChEMBL document CHEMBL3044868, “Effect of pre-sowing and pre-emergence glyphosate applications on weedsin stale seedbed cotton” (2009):

Key:
Assay type in all cases: functional
Gossypium hirsutum [1] = assay: Increase of boll weight in Gossypium hirsutum (cotton) at 2.88 kg a.i./ha as pre-emergence treatment 3 to 4 days after sowing with seedbed preparation measured during harvest time
Gossypium hirsutum [2] = assay: Increase of plant height in Gossypium hirsutum (cotton) at 2.88 kg a.i./ha as pre-emergence treatment 3 to 4 days after sowing without seedbed preparation measured during harvest time
Gossypium hirsutum [3] = assay: Increase of cotton cover in Gossypium hirsutum (cotton) at 2.88 kg a.i./ha as pre-emergence treatment 3 to 4 days after sowing without seedbed preparation measured 2 weeks after emergence
Gossypium hirsutum [4] = assay: Increase of seed cotton yield in Gossypium hirsutum (cotton) at 2.88 kg a.i./ha as pre-emergence treatment 3 to 4 days after sowing with seedbed preparation measured during harvest time
Gossypium hirsutum [5] = assay: Increase of cotton cover in Gossypium hirsutum (cotton) at 2.88 kg a.i./ha as pre-emergence treatment 3 to 4 days after sowing with seedbed preparation measured 2 weeks after emergence
Gossypium hirsutum [6] = assay: Increase of plant height in Gossypium hirsutum (cotton) at 2.88 kg a.i./ha sprayed at 2 to 3 days before sowing without seedbed preparation measured during harvest time
Gossypium hirsutum [7] = assay: Increase of seed cotton yield in Gossypium hirsutum (cotton) at 2.88 kg a.i./ha as pre-emergence treatment 3 to 4 days after sowing without seedbed preparation measured during harvest time
Gossypium hirsutum [8] = assay: Increase of boll weight in Gossypium hirsutum (cotton) at 2.88 kg a.i./ha sprayed at 2 to 3 days before sowing without seedbed preparation measured during harvest time
Gossypium hirsutum [9] = assay: Increase of seed cotton yield in Gossypium hirsutum (cotton) at 2.88 kg a.i./ha sprayed at 2 to 3 days before sowing without seedbed preparation measured during harvest time
Gossypium hirsutum [10] = assay: Increase of plant height in Gossypium hirsutum (cotton) at 2.88 kg a.i./ha as pre-emergence treatment 3 to 4 days after sowing with seedbed preparation measured during harvest time
Gossypium hirsutum [11] = assay: Increase of boll weight in Gossypium hirsutum (cotton) at 2.88 kg a.i./ha as pre-emergence treatment 3 to 4 days after sowing without seedbed preparation measured during harvest time
Gossypium hirsutum [12] = assay: Increase of cotton cover in Gossypium hirsutum (cotton) at 2.88 kg a.i./ha sprayed at 2 to 3 days before sowing without seedbed preparation measured 2 weeks after emergence

SMILES: O=C(O)CNCP(=O)(O)O [GLYPHOSATE]
- Activity (Gossypium hirsutum [1]): 4.3 g
- Activity (Gossypium hirsutum [2]): 91.1 cm
- Activity (Gossypium hirsutum [3]): 16.3%
- Crop_yield (Gossypium hirsutum [4]): 4.8 tons/ha
- Activity (Gossypium hirsutum [5]): 7%
- Activity (Gossypium hirsutum [6]): 90.7 cm
- Crop_yield (Gossypium hirsutum [7]): 5.5 tons/ha
- Activity (Gossypium hirsutum [8]): 5.2 g
- Crop_yield (Gossypium hirsutum [9]): 6 tons/ha
- Activity (Gossypium hirsutum [10]): 91.5 cm
- Activity (Gossypium hirsutum [11]): 5.9 g
- Activity (Gossypium hirsutum [12]): 11.7%
